Legend:
Format in all cases: cell-based, human
[1] = system: peripheral blood mononuclear cells (PBMC), T cells; assay: ELISpot assay, IFNg and IL-5 reactivity combined, T cell response to α-syn epitopes; details: flag 1/0 per peptide
Method: Blood from age matched controls and PD patients were obtained and mononuclear cells were isolated by gradient centrifugation.
Release of the cytokines gamma-interferon, which measures activation of CD4+ and/or CD8+ T cells, and the interleukin, IL-5, which measures activation of CD4+ T cells was measured by ELISpot assay. […] After 22 hours of stimulation at 37 C, the cells were removed and release of cytokines was measured by colorimetric detection of spot-forming cells (SFC). Confirmed release of cytokine is determined by the presence of a minimum of 20 SFC per million cells.
The binding algorithms in SubAim 1 predict how well the peptides would bind to MHC if present, but not if they are present in patients. To determine this, the presence of T cell response against the candidate antigens by patient blood-derived peripheral blood mononuclear cells (PBMC) is assessed by ELISPOT assays upon stimulation with the peptides. This assay detects and quantifies cytokine release (in this case, IFNγ and IL-5) from specific activated T cells.
Data were obtained from blood samples (25 ml) from 44 PD patients and 24 age-matched controls. The experiments were conducted blindly. PBMCs from these samples were isolated and exposed to pools comprising the 122 candidate class I and class II antigens and phosphorylated S129 epitopes generated in Subaim 1. For the PBMCs responsive to the pooled peptides, the response was then deconvoluted to identify individual epitopes.
PMBC fractions are recovered by standard methods with Ficoll gradient and T cells expansion (Oseroff et al., 2010). The methods for the analysis of T cell reactions and measurement of cytokines production using the enzyme-linked immunosorbent spot (ELISPOT) assay are published in analogous experiments to discover antigens in multiple sclerosis (Lolli et al., 2013) and in hay fever allergens (Oseroff et al., 2010). T cell responses are determined by measuring IFNγ and IL-5 release by ELISPOT. Statistical analysis of differences between populations is expected to be non-parametric and analyzed with the U-Mann-Whitney test. If there were a normal distribution of response, which is a priori unlikely as some patients have no T cell response, with an SD=1, 8 patients per group would be required to provide a p>90% that the study detect a >2 fold difference at a two-sided 0.05 significance level.

[2] = system: peripheral blood mononuclear cells (PBMC), T cells; assay: ELISpot assay, gamma-interferon release (SFC) after stimulation with a-synuclein epitope pools; details: for IFNg Peptide + (donors positive to the peptide): of donors tested (peptide); for IFNg Peptide +: number of donors positive to the single peptide
Method in brief: (§1)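 Ficoll-isolated PBMC, PD vs age-matched controls, blinded; peptide pools (122 candidates + pS129 epitopes), 22 h, 37 C. Positive pools deconvoluted.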

[3] = system: peripheral blood mononuclear cells (PBMC), T cells; assay: ELISpot assay, IL-5 release (SFC) after stimulation with a-synuclein epitope pools; details: for IL-g Peptide + (donors positive to the peptide): of donors tested (peptide); for IL-g Peptide +: number of donors positive to the single peptide
Method in brief: as §1

[4] = Normals Summary, single peptide
[5] = Patients Summary, PD patients, single peptide
[6] = second 'Pool Stimulated' section (from r296), 12 donors tested
[7] = peptide + / donors tested (peptide), second 'Pool Stimulated' section (from r296), 12 donors tested
[8] = single peptide, second 'Pool Stimulated' section (from r296), 12 donors tested

Substance	Peptides + in Patients & Normals [1]	IFNg Peptide + (donors positive to the peptide) ([2]; Normals Summary)	IFNg Response Frequency [2, 4] [%]	IFNg Total SFC [2, 4] [SFC]	IFNg Peptide + (donors positive to the peptide) ([2]; Patients Summary, PD patients)	IFNg Avg SFC [2, 5] [SFC]	IFNg Response Frequency [2, 5] [%]	IFNg Total SFC [2, 5] [SFC]	IL-g Peptide + (donors positive to the peptide) ([3]; Normals Summary)	IL-g Response Frequency [3, 4] [%]	IL-g Total SFC [3, 4] [SFC]	IL-g Peptide + (donors positive to the peptide) ([3]; Patients Summary, PD patients)	IL-g Response Frequency [3, 5] [%]	IL-g Total SFC [3, 5] [SFC]	IFNg Peptide + [2, 6]	IFNg Response Frequency [2, 7] [%]	IFNg Total SFC [2, 8] [SFC]	IL-g Peptide + [3, 6]	IL-g Response Frequency [3, 7] [%]	IL-g Total SFC [3, 8] [SFC]	also measured
3521.001 (VFMKGLSKA; listed as Homo sapiens)	1	1	100	220	1	75	33	75	1	100	193	1	33	634							IFNg Avg SFC [2, 4]: 220 SFC; IL-g Avg SFC [3, 4]: 193 SFC; IL-g Avg SFC [3, 5]: 634 SFC
3521.0004 (KTKEGVLYV; listed as Homo sapiens)	0				0		0	0				0	0	0	0	0	0	0	0	0	
3521.007 (GVVAAAEKTK; listed as Homo sapiens)	0				2	113	67	225				1	33	23	0	0	0	0	0	0	IL-g Avg SFC [3, 5]: 23 SFC
3521.008 (VAAAEKTKQGVAEAA; listed as Homo sapiens)	0				1	150	33	150				0	0	0	0	0	0	0	0	0	
3521.0012 (KTKQGVAEA; listed as Homo sapiens)	0	0	0	0	0		0	0	0	0	0	0	0	0							
3521.0016 (DVFMKGLSK; listed as Homo sapiens)	0	1	100	673	0		0	0	1	100	780	0	0	0							IFNg Avg SFC [2, 4]: 673 SFC; IL-g Avg SFC [3, 4]: 180 SFC
3521.0017 (FMKGLSKAK; listed as Homo sapiens)	0	1	100	46.7	0		0	0	0	0	0	0	0	0							IFNg Avg SFC [2, 4]: 46.7 SFC
3521.0076 (PGKTKEGVLYVGSKT; listed as Homo sapiens)					2	40	25	80				1	13	89	1	50	300	1	50	120	Pool + ([2]; IFNg, Pool Stimulated, number of donors with a positive response, Donors tested 1): 1; IFNg Avg SFC [2, 8]: 300 SFC; IL-g Avg SFC [3, 5]: 89 SFC; IL-g Avg SFC [3, 8]: 120 SFC

From patent US20170184612A1, “USE OF LEUKOCYTES AND NOVEL BIOMARKERS IN THE DIAGNOSIS, CONFIRMATION, AND TREATMENT OF A NEUROLOGICAL DISORDER” (The Trustees of Columbia University in the City of New York, priority 2014, published 2017)
